Laboratory results: patent publication US12611453B2, “Method of inducing an HIV-1-specific immune response using a chimpanzee adenovirus vector encoding an hivacat t-cell immunogen and TLR7 agonist” (Gilead Sciences, Inc., priority 2019, dated 2026)

Legend:
Assay type in all cases: in vitro ADME
[1] = target: T1, breast cancer resistance protein (Homo sapiens, UniProt Q9UNQ0); test: in vitro breast cancer resistance protein substrate assessment
T1 sequence (Q9UNQ0 1-655): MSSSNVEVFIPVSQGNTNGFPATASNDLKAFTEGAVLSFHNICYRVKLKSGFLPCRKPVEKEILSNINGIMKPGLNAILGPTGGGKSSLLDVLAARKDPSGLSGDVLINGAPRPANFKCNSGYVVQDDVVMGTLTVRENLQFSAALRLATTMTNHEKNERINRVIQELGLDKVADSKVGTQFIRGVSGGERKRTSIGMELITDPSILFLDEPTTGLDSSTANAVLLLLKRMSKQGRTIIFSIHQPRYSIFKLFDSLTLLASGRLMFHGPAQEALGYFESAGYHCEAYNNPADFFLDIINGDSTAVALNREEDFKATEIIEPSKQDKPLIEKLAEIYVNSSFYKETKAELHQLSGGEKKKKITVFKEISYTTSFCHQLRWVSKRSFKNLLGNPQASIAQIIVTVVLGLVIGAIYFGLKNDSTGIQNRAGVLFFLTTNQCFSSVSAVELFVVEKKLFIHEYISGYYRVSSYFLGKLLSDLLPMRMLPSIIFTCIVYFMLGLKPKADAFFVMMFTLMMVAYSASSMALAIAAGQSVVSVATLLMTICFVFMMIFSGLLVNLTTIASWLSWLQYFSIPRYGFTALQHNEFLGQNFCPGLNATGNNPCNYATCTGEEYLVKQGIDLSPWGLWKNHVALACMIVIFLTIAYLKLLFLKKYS
Text: (§1) Any ART agents known to inhibit or induce CYP3A, P-glycoprotein, or breast cancer resistance protein are excluded from use in this study during treatment (Period 1). For those participants who may be on a regimen including one of these medications, a regimen switch from one of the prohibited medication to an allowed medication is permitted between the screening and baseline visits. The following agents are excluded from the ART regimen during the study: HIV protease inhibitors (including low-dose ritonavir), cobicistat-containing regimens, elvitegravir, efavirenz, etravirine, and nevirapine.

CYP2C8 = target: T2, CYP2C8 (Homo sapiens, UniProt P10632); test: in vitro metabolism by CYP2C8
T2 sequence (P10632 1-490): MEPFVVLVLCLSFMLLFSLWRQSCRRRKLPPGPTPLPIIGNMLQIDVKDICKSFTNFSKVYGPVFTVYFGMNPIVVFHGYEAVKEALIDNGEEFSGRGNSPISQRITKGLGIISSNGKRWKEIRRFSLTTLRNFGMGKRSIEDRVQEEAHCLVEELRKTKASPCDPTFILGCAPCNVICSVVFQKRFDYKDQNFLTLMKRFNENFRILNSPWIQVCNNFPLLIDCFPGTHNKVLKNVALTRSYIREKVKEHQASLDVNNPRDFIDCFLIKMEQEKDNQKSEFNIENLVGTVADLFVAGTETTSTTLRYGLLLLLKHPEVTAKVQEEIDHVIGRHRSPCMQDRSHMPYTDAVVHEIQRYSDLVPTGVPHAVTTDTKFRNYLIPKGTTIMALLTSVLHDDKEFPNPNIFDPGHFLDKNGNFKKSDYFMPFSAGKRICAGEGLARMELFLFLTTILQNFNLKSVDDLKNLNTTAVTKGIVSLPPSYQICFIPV
Text: as §1

[2] = target: cytochrome P450 (CYP) 3A4 enzyme (CYP3A) (Homo sapiens, UniProt P08684); test: in vitro metabolism by cytochrome P450 3A4
Text: as §1

P-glycoprotein = P-glycoprotein (Homo sapiens, UniProt P08183); test: in vitro P-glycoprotein substrate assessment
Text: as §1

CYP2D6 = CYP2D6 (Homo sapiens, UniProt P10635); test: in vitro metabolism by CYP2D6
Sequence of CYP2D6 (P10635 whole entry): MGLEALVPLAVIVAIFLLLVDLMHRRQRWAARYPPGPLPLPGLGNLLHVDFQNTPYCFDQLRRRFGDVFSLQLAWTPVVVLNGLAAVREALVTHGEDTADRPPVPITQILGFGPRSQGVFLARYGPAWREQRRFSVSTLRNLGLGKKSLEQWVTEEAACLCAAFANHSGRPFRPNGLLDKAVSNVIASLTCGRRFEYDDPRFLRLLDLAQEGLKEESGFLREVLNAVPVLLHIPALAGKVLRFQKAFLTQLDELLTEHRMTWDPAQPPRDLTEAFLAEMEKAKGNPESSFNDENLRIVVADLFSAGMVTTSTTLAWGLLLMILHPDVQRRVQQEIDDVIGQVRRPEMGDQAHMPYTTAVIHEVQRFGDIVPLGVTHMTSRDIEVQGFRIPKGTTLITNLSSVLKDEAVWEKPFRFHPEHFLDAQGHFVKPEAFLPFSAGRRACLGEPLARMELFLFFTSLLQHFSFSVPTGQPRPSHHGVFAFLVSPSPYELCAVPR

Sequence of cytochrome P450 (CYP) 3A4 enzyme (CYP3A) (P08684 whole entry): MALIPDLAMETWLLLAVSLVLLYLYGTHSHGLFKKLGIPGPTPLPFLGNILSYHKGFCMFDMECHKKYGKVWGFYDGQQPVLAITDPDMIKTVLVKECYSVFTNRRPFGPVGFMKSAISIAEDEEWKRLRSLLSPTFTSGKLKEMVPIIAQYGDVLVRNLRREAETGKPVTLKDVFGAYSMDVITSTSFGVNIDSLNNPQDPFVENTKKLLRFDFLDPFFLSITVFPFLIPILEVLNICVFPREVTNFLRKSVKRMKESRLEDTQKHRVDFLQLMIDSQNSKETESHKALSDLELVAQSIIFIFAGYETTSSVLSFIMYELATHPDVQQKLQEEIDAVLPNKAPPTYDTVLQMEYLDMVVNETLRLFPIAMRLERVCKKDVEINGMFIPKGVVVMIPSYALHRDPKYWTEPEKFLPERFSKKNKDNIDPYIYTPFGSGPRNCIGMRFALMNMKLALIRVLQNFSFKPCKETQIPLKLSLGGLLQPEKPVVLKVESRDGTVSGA
Sequence of P-glycoprotein (P08183 whole entry): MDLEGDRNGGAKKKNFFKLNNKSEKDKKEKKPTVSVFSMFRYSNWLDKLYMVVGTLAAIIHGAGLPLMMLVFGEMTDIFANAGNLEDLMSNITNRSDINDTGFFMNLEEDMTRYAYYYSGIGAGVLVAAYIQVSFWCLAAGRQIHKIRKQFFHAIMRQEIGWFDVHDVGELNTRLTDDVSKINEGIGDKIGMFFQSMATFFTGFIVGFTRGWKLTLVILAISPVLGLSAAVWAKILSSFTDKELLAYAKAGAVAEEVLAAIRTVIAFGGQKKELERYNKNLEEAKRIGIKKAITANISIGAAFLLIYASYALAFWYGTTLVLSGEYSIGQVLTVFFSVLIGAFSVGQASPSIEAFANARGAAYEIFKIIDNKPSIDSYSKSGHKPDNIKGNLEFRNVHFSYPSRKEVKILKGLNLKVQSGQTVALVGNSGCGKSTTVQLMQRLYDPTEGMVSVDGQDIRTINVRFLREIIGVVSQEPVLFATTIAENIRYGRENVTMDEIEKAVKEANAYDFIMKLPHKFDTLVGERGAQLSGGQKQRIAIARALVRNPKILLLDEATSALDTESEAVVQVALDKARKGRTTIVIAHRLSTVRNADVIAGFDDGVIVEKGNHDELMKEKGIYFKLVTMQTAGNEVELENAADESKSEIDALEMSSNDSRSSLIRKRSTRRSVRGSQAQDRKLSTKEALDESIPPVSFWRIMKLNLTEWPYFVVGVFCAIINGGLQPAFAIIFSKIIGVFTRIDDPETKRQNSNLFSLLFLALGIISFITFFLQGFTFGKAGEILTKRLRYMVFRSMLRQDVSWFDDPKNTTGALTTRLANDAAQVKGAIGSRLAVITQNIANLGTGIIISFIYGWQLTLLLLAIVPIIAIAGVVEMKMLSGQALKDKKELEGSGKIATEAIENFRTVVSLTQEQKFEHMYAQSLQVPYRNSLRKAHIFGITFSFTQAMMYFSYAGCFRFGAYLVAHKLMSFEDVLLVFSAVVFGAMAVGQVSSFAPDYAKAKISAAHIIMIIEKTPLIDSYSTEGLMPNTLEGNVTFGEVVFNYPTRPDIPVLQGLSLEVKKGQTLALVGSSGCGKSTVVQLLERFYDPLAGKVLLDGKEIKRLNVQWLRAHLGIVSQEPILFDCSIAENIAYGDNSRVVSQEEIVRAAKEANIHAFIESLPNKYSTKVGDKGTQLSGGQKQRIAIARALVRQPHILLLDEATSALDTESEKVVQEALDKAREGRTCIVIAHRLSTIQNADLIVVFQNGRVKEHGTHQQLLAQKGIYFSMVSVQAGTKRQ

- substrate of breast cancer resistance protein [1]: substrate
- metabolism by CYP2C8 (contribution to metabolism) (CYP2C8): minor contributions
- metabolism by CYP3A4 (contribution to metabolism) [2]: predominantly metabolized
- substrate of P-glycoprotein (P-glycoprotein): substrate
- metabolism by CYP2D6 (contribution to metabolism) (CYP2D6): minor contributions
SMILES: CCCCOc1nc(N)c2c(n1)N(Cc1cccc(CN3CCCC3)c1)CC(=O)N2 [compound of Formula (I)]
